In article PMC8386742, “Discovery of N-aryl sulphonamide-quinazoline derivatives as anti-gastric cancer agents in vitro and in vivo via activating the Hippo signalling pathway” (Journal of Enzyme Inhibition and Medicinal Chemistry, 2021):

What was measured:
[1] = test system: MCF-7 cells; assay: MTT antiproliferative assay, MCF-7 cells; format: cell-based, human; conditions: exposure for 48 h
Procedure: (§1) The in vitro antiproliferative activities of new target compounds 6a–6g, 9a–9i, 10a–10j, 11a–11j, and 14a–14d were evaluated against four human cancer cell lines (MGC-803, PC-3, HCT-116, and MCF-7) using MTT assay and 5-FU as a positive drug. The following Tables 1–[4] depicted the results of in vitro antiproliferative activity.
(§2) Cell lines used were cultured in humidified incubator in a humidified atmosphere of 5% CO2 and 95% air. The RPMI-1640 medium was supplemented with 10% foetal bovine serum, penicillin (100 U/ml) and streptomycin (0.1 mg/ml).
(§3) Cell lines were seeded into 96-well plates and incubated for 24 h. Then cells were treated with different concentrations of compounds. And after another 48 h, MTT reagent (20 μL per well) was added to each well and then incubated at 37 °C for 4 h. After the suspension was discarded, formazan was then dissolved with DMSO. Absorbencies of formazan solution were measured at 490 nm. The IC50 values of tested compounds were calculated by SPSS version 17.0.

[2] = test system: tubulin; assay: Tubulin polymerization, extracellular; format: biochemical; conditions: 3 μmol/L
Description: In this work, compound 9i was design and synthesized by SAR study of our reported tertiary amide derivatives compound 1 and compound 2. Therefore, we tested the influence of compound 9i on tubulin polymerization and AKT/mTOR and ERK […]
influence on tubulin polymerization and P38, ERK, AKT, mTOR and Wnt pathways . […]
pathway. Therefore, we here reported N-sulfonamide-quinazoline derivatives as novel anti-gastric cancer agents via activating the Hippo signaling pathway in vitro and in […]
Supporting Figure S1. A. Activity of compound 9i on tubulin polymerization . Tubulin polymerization extracellular, concentrations of Paclitaxel, Colchicine and 9i were 3 μmol/L; Activity of compound 9i on P38, ERK, AKT, mTOR and Wnt pathways, cells were incubated with […]
(1 picture or pasted object on this page, not shown here)

[3] = test system: PC-3 cells; assay: MTT antiproliferative assay, PC-3 cells; format: cell-based, human; conditions: Homo sapiens, PC-3, exposure for 48 h
Procedure: as §1, §2, §3

COc1ccc(S(=O)(=O)N(Cc2nc(C)c3ccccc3n2)c2cc(OC)c(OC)c(OC)c2)cc1 [Compound 9i, 4-Methoxy-N-((4-methylquinazolin-2-yl)methyl)-N-(3,4,5-trimethoxyphenyl) benzene-sulfonamide]
IC50 ([1]; Homo sapiens, MCF7, 48 h): 816 nM
IC50 [1]: 810 ± 60 nM
influence on tubulin polymerization [2]: no strong influence
IC50 [3]: 1040 ± 130 nM
